The record followed here is patent US10925967B2, “Degradation of Bruton's tyrosine kinase (BTK) by conjugation of BTK inhibitors with E3 ligase ligand and methods of use” (Dana-Farber Cancer Institute, Inc., priority 2016, dated 2021).

The target in experiment [1] is T1, BTK (Homo sapiens, UniProt Q06187). Description: K562 cell assay and Western blotting of BTK levels. The class given is cell-based. On the set-up: endogenous in cells; host or cells: K562 cells. Particulars: K562 cells, 200 nM, 1 μM, or 5 μM, 12 hours. The method, then:
K562 cells were treated with DMSO or with 200 nM, 1 μM, or 5 μM of a BTK bifunctional inhibitor compound of the disclosure for 12 hours, followed by protein lysate harvest and Western blotting analysis.
(§1) Cells are lysed using RIPA buffer supplemented with protease inhibitor cocktail (Roche) and phosSTOP phosphatase inhibitor cocktail (Roche) on ice for 15 minutes. The lysates are spun at 20,000×g for 15 minutes on 4° C. and protein concentration is determined using BCA assay (Pierce). The following primary antibodies are used in this study: BTK, GADPH, tubulin and Aurora A kinase (all from Cell Signaling Technology). Blots are imaged using fluorescence-labeled secondary antibodies (LI-COR) on the OdysseyCLxImager (LI-COR). Quantification of band intensities is performed using OdysseyCLx software (LI-COR).

For experiment [2], the target named is T1, BTK. Description: MOLM14 cell assay and Western blotting of BTK, Aurora A and tubulin levels. Format: cell-based. On the set-up: endogenous in cells. The following applies: MOLM14 cells, 40 nM, 200 nM, 1 μM, 4 hours. The protocol: MOLM14 cells were treated with DMSO or with 40 nM, 200 nM, 1 μM of a BTK bifunctional inhibitor compound of the disclosure for 4 hours, followed by protein lysate harvest and Western blotting analysis of BTK, Aurora A, and ca-tubulin levels. […] (FIG. 2)
as §1

T1 sequence (Q06187 whole entry): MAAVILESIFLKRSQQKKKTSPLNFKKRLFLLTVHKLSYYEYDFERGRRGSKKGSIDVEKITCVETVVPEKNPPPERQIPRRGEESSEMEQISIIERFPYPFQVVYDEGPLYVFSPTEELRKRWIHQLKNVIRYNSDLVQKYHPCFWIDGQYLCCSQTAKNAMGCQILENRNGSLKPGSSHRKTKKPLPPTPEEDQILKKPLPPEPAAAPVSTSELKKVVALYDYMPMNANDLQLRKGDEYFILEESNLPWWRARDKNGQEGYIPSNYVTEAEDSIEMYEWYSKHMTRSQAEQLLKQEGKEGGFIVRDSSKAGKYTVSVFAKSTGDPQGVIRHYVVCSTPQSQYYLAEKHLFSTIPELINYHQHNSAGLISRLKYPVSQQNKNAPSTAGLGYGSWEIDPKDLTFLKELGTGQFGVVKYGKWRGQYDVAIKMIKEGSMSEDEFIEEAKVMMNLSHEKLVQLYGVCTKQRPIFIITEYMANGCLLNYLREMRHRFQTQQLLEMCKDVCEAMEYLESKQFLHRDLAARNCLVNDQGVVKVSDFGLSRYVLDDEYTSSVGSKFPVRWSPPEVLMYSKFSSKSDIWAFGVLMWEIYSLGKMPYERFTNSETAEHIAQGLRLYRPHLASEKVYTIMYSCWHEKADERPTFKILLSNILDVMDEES

For `COc1cc(Nc2c(C#N)cnc3cc(OCCCN4CCN(CCOCCOCCOCCNc5cccc6c5C(=O)N(C5CCC(=O)NC5=O)C6=O)CC4)c(OC)cc23)c(Cl)cc1Cl` (stereo not drawn) [Compound I-2], the “BTK degradation (Western blot)” value in experiment [1] is listed as “showed BTK degradation”.
Turning to `COc1cc(Nc2c(C#N)cnc3cc(OCCCN4CCN(CCOCCOCCNc5cccc6c5C(=O)N(C5CCC(=O)NC5=O)C6=O)CC4)c(OC)cc23)c(Cl)cc1Cl` (stereo not drawn) [Compound I-3], the “BTK degradation (Western blot)” value in experiment [2] was “showed BTK degradation”.
With `COc1cc(Nc2c(C#N)cnc3cc(OCCCN4CCN(C(=O)CCCNC(=O)COc5cccc6c5C(=O)N(C5CCC(=O)NC5=O)C6=O)CC4)c(OC)cc23)c(Cl)cc1Cl` (stereo not drawn) [Compound I-5], in experiment [1], the “BTK degradation (Western blot)” value is reported as “showed BTK degradation”.
